# Measured values from US20240409534A1, “CRYSTAL FORM OF METHYLPYRAZOLE-SUBSTITUTED PYRIDOIMIDAZOLE COMPOUND AND PREPARATION METHOD THEREFOR” (priority 2021, published 2024).
# Assay: Pharmacokinetic study in rats at 100 mpk (Experimental Embodiment 4)
# Format: in vivo
# Settings: male SD rats; for AUC(0-inf) / AUC(0-t) / Cmax / Tmax / half-life: Sprague-Dawley, rat, plasma, po, 100 mg/kg
# Experimental: SD rats (overnight fasting, 7 to 11 weeks old)
# The compound of the present disclosure or its crystal form of 5% DMSO/10% Kolliphor HS15/85% (0.2% (v/v) Tween80 aqueous solution) at 10 mg/mL was administered by gavage to male SD rats (overnight fasting, 7 to 11 weeks old) at a dose of 100 mg/kg. At 0.25, 0.5, 1.0, 2.0, 4.0, 8.0 and 24 h after administration, approximately 0.2 mL of blood was collected from the jugular vein of the animals in all three groups, placed in an anticoagulant tube added with EDTA-K2, and centrifuged for the separation of plasma. Plasma concentrations were determined by LC-MS/MS method, and relevant pharmacokinetic parameters were calculated using WinNonlin™ Version 6.3 (Pharsight, Mountain View, CA) pharmacokinetic software with non-compartmental model linear-log trapezoidal method.
Compound,AUC(0-inf),AUC(0-t),Cmax,Tmax,half-life,Tlast
CS(=O)(=O)O.Cn1cc(-c2ccn3c(-c4cc(NS(C)(=O)=O)nc(-c5ccc(F)cc5F)c4)cnc3c2)cn1,179 µM·h,179 µM·h,22.1 µM,2.5 h,1.85 h,24.0 h
Cl.Cn1cc(-c2ccn3c(-c4cc(NS(C)(=O)=O)nc(-c5ccc(F)cc5F)c4)cnc3c2)cn1,32.3 µM·h,32.3 µM·h,8.78 µM,0.5 h,2.57 h,24.0 h
Cn1cc(-c2ccn3c(-c4cc(NS(C)(=O)=O)nc(-c5ccc(F)cc5F)c4)cnc3c2)cn1 [Compound represented by formula (I)],12.6 µM·h,12.6 µM·h,3.75 µM,0.5 h,2.25 h,24.0 h
